Earlier results as cited in publication PMC3074590 (Science (New York, N.Y.), 2010).

System: CXCR4
Conditions: characterized previously; no reference printed at this statement

CC1(C)CN2C(CSC(=NC3CCCCC3)NC3CCCCC3)=CSC2=N1 [IT1t]
mode of inhibition of CXCL12: competitive inhibitors of CXCL12
